# From paper PMC5785531, “Pharmacokinetic parameters explain the therapeutic activity of antimicrobial agents in a silkworm infection model” (Scientific Reports, 2018)
# Read-outs that look alike come from different tables or passages of the source.
# Tests used:
# [1] = test system: S. aureus MSSA1; assay: Silkworm systemic infection model, therapeutic activity (ED50); type: in vivo, Staphylococcus aureus
# From the text: We synthesized 50 compounds (Fig. 2, Supplementary Table 1) using the Steglich esterification scheme[31] in the presence of a […], 1-ethyl-3-(3-dimethylaminopropyl)-carbodiimide hydrochloride (Fig. 1b). Antimicrobial activities of the compounds were examined by determining the MIC against S. aureus MRSA4 in vitro; therapeutic activities were examined using a systemic infection model of silkworms infected with S. aureus MSSA1.
# A total of 108,373 compounds from the chemical library of the Drug Discovery Initiative at the University of Tokyo were screened for antibacterial activity against S. aureus strain MRSA4 as previously reported. Those compounds that inhibited the growth of MRSA4 at 100 µM were further evaluated for their therapeutic effects in silkworms infected with S. aureus strain MSSA1 according to previously reported studies[17],[21].
# [2] = test system: Bacillus subtilis JCM2499; assay: MIC by broth microdilution assay; type: cell-based; settings: median of three experiments
# Protocol: (§1) Antimicrobial activity was assessed by determining the MIC by broth dilution assay according to our previous reports[21],[35],[36] as per the Clinical and Laboratory Standards Institute[37]. Briefly, serial dilutions of compound 5, compound 7, and positive controls were prepared in cation-adjusted Mueller-Hinton Broth (MHB, Difco, Franklin Lakes, NJ, USA), 100 µl of which was dispensed into each well of a round-bottomed 96-well plate. The final concentrations in the well ranged from 128 µg/ml to 0.0625 µg/ml. Bacteria were grown at 37 °C overnight on either Luria Bertani (tryptone 10 g/l, yeast extract 5 g/l, NaCl 10 g/l) or Tryptic Soy Broth (TSB, Difco) agar plates or sheep blood agar plates (Eiken Chemical Co. Ltd., Tokyo, Japan). Bacterial inoculum was prepared by direct suspension of the colonies in 0.9% saline, and adjusted to obtain a turbidity equivalent to a 0.5 McFarland standard using a spectrophotometer UV-1280 (Shimadzu Corp., Kyoto, Japan). The suspension was then diluted 1:20 in cation-adjusted MHB (Difco), and 10 µl of it was inoculated into each well of previously prepared 96-well plates containing compounds to obtain approximately 5 × 10^4 colony forming units/well and incubated at 37 °C for 20 h. […] Vancomycin (Wako Pure Chemicals) or norfloxacin (Sigma Aldrich, St Louis, MO, USA) were used as positive controls. Each plate contained a growth control well and a vehicle control well. The MIC was determined as the minimum concentration that inhibited the growth of the bacteria.
# [3] = test system: Enterococcus faecalis EF1; assay: MIC by broth microdilution assay; type: cell-based; settings: median of three experiments
# Protocol: as §1
# [4] = test system: Escherichia coli W3110; assay: MIC by broth microdilution assay; type: cell-based; settings: median of three experiments
# Protocol: as §1
# [5] = test system: Listeria monocytogenes 10403S; assay: MIC by broth microdilution assay; type: cell-based; settings: median of three experiments
# Protocol: as §1
# [6] = test system: MSSA1 (clinical isolate); assay: MIC by broth microdilution assay; type: cell-based; settings: Staphylococcus aureus, MSSA, median of three experiments
# Protocol: as §1
# [7] = test system: Newman; assay: MIC by broth microdilution assay; type: cell-based; settings: Staphylococcus aureus, MSSA, median of three experiments
# Protocol: as §1
# [8] = test system: Staphylococcus simulans; assay: MIC by broth microdilution assay; type: cell-based; settings: median of three experiments
# Protocol: as §1
# [9] = test system: Streptococcus sanguinis JCM5708; assay: MIC by broth microdilution assay; type: cell-based; settings: MHB with 2.5% lysed horse blood, 24 h, median of three experiments
# Protocol: as §1
# [10] = test system: USA300 FPR3757 (clinical isolate); assay: MIC by broth microdilution assay; type: cell-based; settings: Staphylococcus aureus, MRSA, median of three experiments
# Protocol: as §1
# [11] = test system: Vancomycin- resistant E. faecalis EF5; assay: MIC by broth microdilution assay; type: cell-based; settings: Enterococcus faecalis, median of three experiments
# Protocol: as §1
# [12] = Pharmacokinetics in silkworm hemolymph after intra-hemolymph injection; type: in vivo, Silkworms (Bombyx mori); settings: for Cmax / AUC(0-t) / k el / AUC(0-inf) / C0 / clearance / MRT inf / Vd / half-life: Hu•Yo × Tsukuba•Ne, 50 ug, injected dose 50 μg intra-hemolymph; for AUC(0-t): 0 to last measured value (5 h); for k el: PKSolver non-compartment analysis, read-out: Lambda_z (converted); for AUC(0-inf): extrapolated to infinity; for C0: read-out: C0 (initial concentration, extrapolated time-zero value); for clearance: read-out: Cl (total clearance); for MRT inf: read-out: MRT 0-inf (mean residence time) (converted); for Vd: read-out: Vss (volume of distribution at steady state); for half-life: read-out: t1/2 (half-life at terminal phase)
# Protocol: To gain an insight into the reason for the difference in the therapeutic activities of compounds 5 and 7, we evaluated the pharmacokinetic properties of both compounds in vivo in silkworms. We injected silkworms into the hemolymph with compound 5 or compound 7 (50 µg each) and collected the hemolymph from each injected silkworm at different time-points for high performance liquid chromatography (HPLC) analysis. The concentration-time profile was plotted and the pharmacokinetic parameters were analyzed using PKSolver[32] (Fig. 3a,b). […] The volume of distribution at steady state (Vss) value of compound 7 was larger than that of compound 5, further indicating the higher distribution capacity of compound 7 compared with compound 5. The concentrations of compounds 5 and 7 in the hemolymph decreased with time, with compound 7 having faster rate of elimination than compound 5. At 5 h, the concentration of compound 5 in the hemolymph was approximately 10-fold higher than that of 7. […] Both the area under the curves (AUC) at 5 h and that extrapolated to infinity were higher for compound 5 than for compound 7 in the silkworm.
# Silkworms larvae hatched from eggs (Hu•Yo × Tsukuba•Ne, Ehime Sanshu, Ehime, Japan) were fed Silkmate 2S (Nosan Corporation, Yokohama, Japan) and grown at 27 °C until the fourth molt stage. They were, then, fed an antibiotic-free artificial food, Silkmate (Katakura Industries Co., Ltd., Tokyo, Japan), on the first day of fifth-instar larval stage. The next day, larvae (~2 g) were injected into the hemolymph with 50 µg of compounds 5 and 7 using a 1 ml syringe with a 27 G needle (Terumo Corporation, Tokyo, Japan). Silkworms were incubated after injection at 27 °C without feeding. The hemolymph was harvested from the limbs of individual silkworms at the indicated time, and the silkworms were killed after the harvest. The harvested hemolymph was mixed with an equal volume of acetonitrile followed by centrifugation at 15, 000 rpm for 10 min at 4 °C. The supernatant was collected, evaporated, and dissolved into 50% acetonitrile. The samples thus prepared were analyzed by high performance liquid chromatography (HPLC) equipped with a Waters 2998 Photodiode Array Detector (Waters Corporation, Milford, MA, USA) and a Waters 2707 Autosampler (Waters) using a Senshu-Pak Pegasil ODS-SP-100 column (4.6 Ø × 250 mm; Senshu Scientific, Tokyo, Japan) with gradient elution of 50–100% acetonitrile for 30 min at a flow rate of 1 ml/min. Standard curves for each compound were drawn by measuring the peak area on HPLC charts, and the amounts of each compound in the sample were determined. Mean concentrations from triplicate experiments were determined for each time-point and the pharmacokinetic parameters were determined using the PKSolver 2.0 ‘add-in’ for Excel 2007 on a computer running Windows 7[32]. Non-compartment analysis was performed with area under the curve calculated using the linear trapezoidal method. The terminal elimination slope, λz was calculated based on default parameters. Statistical analysis was performed using Prism 5 for Mac OS X, version 5.0 f (GraphPad Software, La Jolla, CA).
# [13] = Staphylococcus aureus, silkworms infected with S. aureus MSSA1 (Fig. 2), read-out: ED50
Compound,ED50 ([1]; S. aureus-infected silkworms),"ED50 [1, 13]",MIC [2],MIC [3],MIC [4],MIC [5],MIC [6],MIC [7],MIC [8],MIC [9],MIC [10],MIC [11],Cmax [12],AUC(0-t) [12],k el [12],AUC(0-inf) [12],C0 [12],clearance [12],MRT inf [12],Vd [12],also measured
O=C(OCc1cc(Cl)cc(Cl)c1)c1ccc([N+](=O)[O-])s1 [compound 5],22 µg/g,22 mg/kg,1 µg/mL,> 128 µg/mL,> 128 µg/mL,> 128 µg/mL,0.5 µg/mL,0.5 µg/mL,0.25 µg/mL,> 128 µg/mL,1 µg/mL,> 128 µg/mL,23000 ng/mL,3000 ng·h/mL,8.33e-05 s⁻¹,3480 ng·h/mL,24000 ng/mL,0.23 mL/min,2.08 h,0.03 L,half-life [12]: 2.33 h; concentration in the hemolymph relative to compound 7 ([12]; at 5 h after injection of 50 µg): approximately 10 fold
O=C(OCc1ccccc1)c1ccc([N+](=O)[O-])s1 [compound 7],> 170 µg/g,> 170 mg/kg,1 µg/mL,> 128 µg/mL,> 128 µg/mL,> 128 µg/mL,1 µg/mL,1 µg/mL,0.5 µg/mL,> 128 µg/mL,1 µg/mL,> 128 µg/mL,7000 ng/mL,733 ng·h/mL,0.000217 s⁻¹,733 ng·h/mL,7000 ng/mL,1.1 mL/min,0.733 h,0.044 L,half-life [12]: 0.883 h
